Results as given in PubChem BioAssay (NCI).
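Results reflect a 48-hour exposure of cells in 96-well plates to compound at five concentrations. TGI: total growth inhibition.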

Tests used:
Assay in all cases: DTP human tumour cell line panel, 48 h
LOX IMVI melanoma = tested on: LOX IMVI melanoma
RXF-631 renal = tested on: RXF-631 renal
UACC-62 melanoma = tested on: UACC-62 melanoma
HOP-62 NSCLC = tested on: HOP-62 NSCLC
UACC-257 melanoma = tested on: UACC-257 melanoma
OVCAR-3 ovarian = tested on: OVCAR-3 ovarian
KM20L2 colon = tested on: KM20L2 colon
HOP-18 NSCLC = tested on: HOP-18 NSCLC
OVCAR-4 ovarian = tested on: OVCAR-4 ovarian
U251 CNS = tested on: U251 CNS
SK-OV-3 ovarian = tested on: SK-OV-3 ovarian
M14 melanoma = tested on: M14 melanoma
SF-295 CNS = tested on: SF-295 CNS
COLO 205 colon = tested on: COLO 205 colon
SN12C renal = tested on: SN12C renal
DLD-1 colon = tested on: DLD-1 colon
SK-MEL-28 melanoma = tested on: SK-MEL-28 melanoma
EKVX NSCLC = tested on: EKVX NSCLC
SNB-75 CNS = tested on: SNB-75 CNS
SNB-19 CNS = tested on: SNB-19 CNS
MOLT-4 leukemia = tested on: MOLT-4 leukemia
HCT-15 colon = tested on: HCT-15 colon
SK-MEL-2 melanoma = tested on: SK-MEL-2 melanoma
OVCAR-8 ovarian = tested on: OVCAR-8 ovarian
SF-268 CNS = tested on: SF-268 CNS
DMS 114 small cell lung = tested on: DMS 114 small cell lung
TK-10 renal = tested on: TK-10 renal
NCI-H522 lung = tested on: NCI-H522 lung
UO-31 renal = tested on: UO-31 renal
HOP-92 NSCLC = tested on: HOP-92 NSCLC
LXFL 529 NSCLC = tested on: LXFL 529 NSCLC
SK-MEL-5 melanoma = tested on: SK-MEL-5 melanoma
CCRF-CEM leukemia = tested on: CCRF-CEM leukemia
HT29 colon = tested on: HT29 colon
M19-MEL melanoma = tested on: M19-MEL melanoma
786-0 renal = tested on: 786-0 renal
OVCAR-5 ovarian = tested on: OVCAR-5 ovarian
RPMI-8226 leukemia = tested on: RPMI-8226 leukemia
HCT-116 colon = tested on: HCT-116 colon
RXF 393 renal = tested on: RXF 393 renal
NCI-H23 lung = tested on: NCI-H23 lung
CAKI-1 renal = tested on: CAKI-1 renal
IGROV1 ovarian = tested on: IGROV1 ovarian
NCI-H460 lung = tested on: NCI-H460 lung
SNB-78 CNS = tested on: SNB-78 CNS
HCC-2998 colon = tested on: HCC-2998 colon
MALME-3M melanoma = tested on: MALME-3M melanoma
SW-620 colon = tested on: SW-620 colon
NCI-H226 lung = tested on: NCI-H226 lung
KM12 colon = tested on: KM12 colon
SF-539 CNS = tested on: SF-539 CNS
ACHN renal = tested on: ACHN renal
K-562 leukemia = tested on: K-562 leukemia
HL-60(TB) leukemia = tested on: HL-60(TB) leukemia
SR leukemia = tested on: SR leukemia
A498 renal = tested on: A498 renal
A549 NSCLC = tested on: A549 NSCLC
DMS 273 small cell lung = tested on: DMS 273 small cell lung

## CN1C(OCc2ccccc2)c2c(ccc3c2OCO3)C2C=Cc3cc4c(cc3C21)OCO4 (centres undefined)
LOX IMVI melanoma
  TGI: 337 nM
RXF-631 renal
  TGI: 2090 nM
UACC-62 melanoma
  TGI: 2460 nM
HOP-62 NSCLC
  TGI: 2960 nM
UACC-257 melanoma
  TGI: 2680 nM
OVCAR-3 ovarian
  TGI: 1970 nM
KM20L2 colon
  TGI: 2950 nM
HOP-18 NSCLC
  TGI: 2610 nM
OVCAR-4 ovarian
  TGI: 3.06 µM
U251 CNS
  TGI: 2840 nM
SK-OV-3 ovarian
  TGI: 2460 nM
M14 melanoma
  TGI: 2100 nM
SF-295 CNS
  TGI: 2810 nM
COLO 205 colon
  TGI: 2200 nM
SN12C renal
  TGI: 2610 nM
DLD-1 colon
  TGI: 1650 nM
SK-MEL-28 melanoma
  TGI: 1630 nM
EKVX NSCLC
  TGI: 2980 nM
SNB-75 CNS
  TGI: 2710 nM
SNB-19 CNS
  TGI: 3.06 µM
MOLT-4 leukemia
  TGI: 678 nM
HCT-15 colon
  TGI: 1830 nM
SK-MEL-2 melanoma
  TGI: 2920 nM
OVCAR-8 ovarian
  TGI: 1050 nM
SF-268 CNS
  TGI: 1580 nM
DMS 114 small cell lung
  TGI: 854 nM
TK-10 renal
  TGI: 3.3 µM
NCI-H522 lung
  TGI: 2160 nM
UO-31 renal
  TGI: 2590 nM
HOP-92 NSCLC
  TGI: 2300 nM
LXFL 529 NSCLC
  TGI: 1370 nM
SK-MEL-5 melanoma
  TGI: 2580 nM
CCRF-CEM leukemia
  TGI: 1050 nM
HT29 colon
  TGI: 1470 nM
M19-MEL melanoma
  TGI: 361 nM
786-0 renal
  TGI: 2650 nM
OVCAR-5 ovarian
  TGI: 2860 nM
RPMI-8226 leukemia
  TGI: 584 nM
HCT-116 colon
  TGI: 1440 nM
RXF 393 renal
  TGI: 2310 nM
NCI-H23 lung
  TGI: 2680 nM
CAKI-1 renal
  TGI: 2200 nM
IGROV1 ovarian
  TGI: 2090 nM
NCI-H460 lung
  TGI: 3.09 µM
SNB-78 CNS
  TGI: 2040 nM
HCC-2998 colon
  TGI: 2990 nM
MALME-3M melanoma
  TGI: 2520 nM
SW-620 colon
  TGI: 1350 nM
NCI-H226 lung
  TGI: 2800 nM
KM12 colon
  TGI: 2220 nM
SF-539 CNS
  TGI: 2990 nM
ACHN renal
  TGI: 2830 nM

## O=C(O)C1CCc2nnc(-c3ccccc3)n21 (centres undefined)
K-562 leukemia
  TGI: > 100 µM
RXF-631 renal
  TGI: > 100000 nM
UACC-62 melanoma
  TGI: > 100000 nM
HOP-62 NSCLC
  TGI: > 100000 nM
UACC-257 melanoma
  TGI: > 100000 nM
OVCAR-3 ovarian
  TGI: > 100000 nM
KM20L2 colon
  TGI: > 100000 nM
HOP-18 NSCLC
  TGI: > 100000 nM
OVCAR-4 ovarian
  TGI: > 100 µM
U251 CNS
  TGI: > 100000 nM
SK-OV-3 ovarian
  TGI: > 100000 nM
M14 melanoma
  TGI: > 100000 nM
HL-60(TB) leukemia
  TGI: > 100 µM
SR leukemia
  TGI: > 100 µM
COLO 205 colon
  TGI: > 100000 nM
A498 renal
  TGI: > 100 µM
SN12C renal
  TGI: > 100000 nM
DLD-1 colon
  TGI: > 100000 nM
A549 NSCLC
  TGI: > 100 µM
SK-MEL-28 melanoma
  TGI: > 100000 nM
EKVX NSCLC
  TGI: > 100000 nM
SNB-75 CNS
  TGI: > 100000 nM
SNB-19 CNS
  TGI: > 100 µM
MOLT-4 leukemia
  TGI: > 100000 nM
HCT-15 colon
  TGI: > 100000 nM
SK-MEL-2 melanoma
  TGI: > 100000 nM
OVCAR-8 ovarian
  TGI: > 100000 nM
SF-268 CNS
  TGI: > 100000 nM
DMS 114 small cell lung
  TGI: > 100000 nM
TK-10 renal
  TGI: > 100 µM
NCI-H522 lung
  TGI: > 100000 nM
UO-31 renal
  TGI: > 100000 nM
LXFL 529 NSCLC
  TGI: > 100000 nM
SK-MEL-5 melanoma
  TGI: > 100000 nM
CCRF-CEM leukemia
  TGI: > 100000 nM
M19-MEL melanoma
  TGI: > 100000 nM
DMS 273 small cell lung
  TGI: > 100 µM
786-0 renal
  TGI: > 100000 nM
RPMI-8226 leukemia
  TGI: > 100000 nM
HCT-116 colon
  TGI: > 100000 nM
RXF 393 renal
  TGI: > 100000 nM
CAKI-1 renal
  TGI: > 100000 nM
IGROV1 ovarian
  TGI: > 100000 nM
NCI-H460 lung
  TGI: > 100 µM
SNB-78 CNS
  TGI: > 100000 nM
HCC-2998 colon
  TGI: > 100000 nM
MALME-3M melanoma
  TGI: > 100000 nM
SW-620 colon
  TGI: > 100000 nM
NCI-H226 lung
  TGI: > 100000 nM
KM12 colon
  TGI: > 100000 nM
SF-539 CNS
  TGI: > 100000 nM
ACHN renal
  TGI: > 100000 nM
